Assay results published in US20160279187A1, “CALPAIN INHIBITORS FOR IBD AND COLORECTAL CANCER TREATMENT” (UNIVERSITY OF HAWAII, priority 2013, published 2016).
Where a SMILES comes first, the peptide text is derived from it. The star is where a group is joined. Cbz = O=C(OCc1ccccc1)*; CH2F = FC*

Legend:
[1] = molecular target: T1, m-calpain (Homo sapiens, UniProt P17655); conditions: on-target; cited from earlier work
T1 sequence (P17655 1-700): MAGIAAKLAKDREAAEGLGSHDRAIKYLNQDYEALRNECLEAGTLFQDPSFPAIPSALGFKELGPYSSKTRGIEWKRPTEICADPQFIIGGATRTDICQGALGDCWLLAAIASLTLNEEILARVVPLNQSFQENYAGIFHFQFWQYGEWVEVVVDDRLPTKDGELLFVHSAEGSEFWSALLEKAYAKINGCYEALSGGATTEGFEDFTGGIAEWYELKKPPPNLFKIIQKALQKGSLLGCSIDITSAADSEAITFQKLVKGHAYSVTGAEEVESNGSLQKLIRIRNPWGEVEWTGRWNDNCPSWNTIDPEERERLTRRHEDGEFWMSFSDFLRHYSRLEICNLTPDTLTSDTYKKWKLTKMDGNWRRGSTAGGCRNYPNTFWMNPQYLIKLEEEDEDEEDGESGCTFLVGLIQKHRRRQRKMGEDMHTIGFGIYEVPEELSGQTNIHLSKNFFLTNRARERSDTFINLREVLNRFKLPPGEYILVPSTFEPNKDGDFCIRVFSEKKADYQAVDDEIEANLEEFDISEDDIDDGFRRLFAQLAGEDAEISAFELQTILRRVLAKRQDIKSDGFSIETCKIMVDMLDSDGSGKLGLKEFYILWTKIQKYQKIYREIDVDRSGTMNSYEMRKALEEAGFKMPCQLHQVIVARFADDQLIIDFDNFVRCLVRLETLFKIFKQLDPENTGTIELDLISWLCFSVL
T1 sequence (P04632 1-268 partner): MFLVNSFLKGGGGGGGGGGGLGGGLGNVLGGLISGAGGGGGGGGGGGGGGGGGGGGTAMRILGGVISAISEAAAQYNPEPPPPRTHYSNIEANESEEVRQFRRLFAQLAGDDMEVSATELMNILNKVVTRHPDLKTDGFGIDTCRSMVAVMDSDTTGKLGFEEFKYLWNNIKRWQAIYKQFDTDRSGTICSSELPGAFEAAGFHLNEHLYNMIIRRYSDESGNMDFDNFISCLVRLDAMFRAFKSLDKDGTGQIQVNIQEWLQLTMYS

[2] = tested on: IκB / NFκB in TNFα primed macrophages; assay: IκB and nuclear NFκB western blot in activated macrophages; type: cell-based, mouse; conditions: vs DMSO
Experimental: Bone marrow derived macrophages (BMDM) were prepared as previously described by methods known to those skilled in the art. On day 5 of culture, 2×10^6 BMDM were seeded in 6-well plates and the following day were primed for 18 h with TNFα (20 ng/mL), followed by 1 h stimulation with E. faecalis (1 μg/mL; ATCC). Stimulation with E. faecalis was conducted in the presence of the zLLY-CH2F calpain-2 inhibitor (20 μg/mL) or DMSO as a control. Media was removed from treated BMDM, centrifuged at 300×g for 5 min and supernatent analyzed using the Cytometric Bead Array Mouse Inflammation Kit (BD Biosciences, San Jose, Calif.). Cytokine data were analyzed using Flowjo software (Ashland, Oreg.) and GraphPad Prism version 4.0 (GraphPad, La Jolla, Calif.). Cell pellets were lysed and analyzed for IκB and NFκB by Western blot as previously described (Miyazaki, T. et al. Journal of Atherosclerosis and Thrombosis 20, 228-237, 2013). […] Each day 4 wells were quantified using Celltiter MTS reagent (Promega) and the resulting signal was used to generate a proliferation curve. Calpain activity was measured using a Calpain activity assay kit (BioVision, Inc., Milpitas, Calif.) as previously described. Colons were harvested on day 4 and calpain activity measured. […] Supernatants were evaluated for a panel of cytokines including IFNγ, TNFα, IL-6, and MCP-1, IL-10, and IL-12. […]

Compound: CC(C)C[C@H](NC(=O)OCc1ccccc1)C(=O)N[C@@H](CC(C)C)C(=O)N[C@@H](Cc1ccc(O)cc1)C(=O)CF [zLLY-CH2F, Z-LLY-CH2F] (Cbz-Leu-Leu-Tyr-CH2F)
- k2 rate constant, irreversible inhibition of m-calpain [1]: about 28,900 M-1 s-1
- IκB degradation [2]: decreased
- NFκB localization to the nucleus [2]: decreased
